Source: patent US20130202629A1, “USES OF PHOSPHOLIPID CONJUGATES OF SYNTHETIC TLR7 AGONISTS” (The Regents of the University of California, priority 2010, published 2013)

Legend:
[1] = test system: TLR7; assay: IL-12 and IL-6 induction in BMDM from wild type and TLR7 deficient mice; format: cell-based, mouse; conditions: BMDM from TLR7 deficient (TLR7-KO) mice
[2] = test system: C57BL/6 mice; format: in vivo, mouse
Method: Anti-OVA antibodies of the IgG subclasses (and in some embodiments specifically IgG1 and IgG2) were measured by ELISA, as described in Cho, H. J et al., “Immunostimulatory DNA-based vaccines induce cytotoxic lymphocyte activity by a T-helper cell-independent mechanism” [see comments], Nat. Each ELISA plate contained a titration of a previously quantitated serum to generate a standard curve. The titer of this standard was calculated as the highest dilution of serum that gave an absorbance reading that was double the background. The various sera samples were tested at a 1:100 dilution. The results are expressed in units per mL, calculated based on the units/mL of the standard serum, and represent the mean±SEM of five animals in each group. * and T denote P<0.05 and P<0.01 by One-way ANOVA compared to the mice immunized with OVA mixed with vehicle, respectively.
Spleenocytes were prepared from the harvested spleens. […] The levels of IFNα in the culture supernatants were measured by ELISA (BD Bioscience PharMingen) as per the manufacturer's instructions (Kobayashi, H et al., Prepriming: a novel approach to DNA-based vaccination and immunomodulation”, Springer Semin. Immunopathol., 22:85 (2000)), and the results illustrated in FIG. 5C. Average total spleen cell number in each group were calculated and compared to the PBS-immunized groups to monitor the spleen cell proliferation. Data are mean±SEM of five mice and are representative of three independent experiments.
The efficiency of adjuvanticity was assessed by measurement of the levels and isotypes of the antigen-specific IgG that the vaccine induces, in particular IgG1 and IgG2 (Mosmann, T. R., and Coffman, R. L., ‘TH1 and TH2 cells: different patterns of lymphokine secretion lead to different functional properties’, Annual Review Immunology, 7:145 (1989)). […] ISS-ODN was used as a potent Th1 adjuvant positive control.

[3] = test system: C57BL/6 mice or caspase 1 deficient; assay: Induction of bladder inflammation by intravesical treatment; format: in vivo, mouse; conditions: intravesical 150 nmoles
Text: C57BL/6 mice or caspase 1 deficient were intravesically treated with 150 nmoles 1V270 or vehicle alone three times at two-day intervals. One set of mice was sacrificed twenty-four hours after the first treatment (FIG. 7). Another set of mice was sacrificed twenty-four hours after the third treatment. […] This inflammation was not detected in the caspase 1 deficient mice.

In the case of `CCCCCCCC/C=C\CCCCCCCC(=O)OCC(COP(=O)(O)OCCNC(=O)c1ccc(Cn2c(=O)[nH]c3c(N)nc(OCCOC)nc32)cc1)OC(=O)CCCCCCC/C=C\CCCCCCCC` (stereo not drawn) [Compound 6, 2-(4-((6-amino-2-(2-methoxyethoxy)-8-oxo-7H-purin-9(8H)-yl)methyl)benzamido)ethyl 2,3-bis(oleoyloxy)propyl phosphate], the “IL-12 and IL-6 induction in TLR7 deficient BMDM” value [1] is reported as “little or no IL-12 and IL-6”, the “adjuvant activity when administered with the antigen ovalbumin” value ([2]; mouse, in vivo) is reported as “potent adjuvant” and the “earliest induction of OVA-specific antibodies of the IG subclass (FIG. 5A)” value ([2]; s.c. 20 μg OVA + 10 nmol conjugate on days 0 and 7) is reported as 14 days. For the same compound, the “OVA-specific IFN secretion by spleen cells” value ([2]; splenocytes of day 56 restimulated with OVA (FIG. 5C)) was “enhanced”, the “bladder inflammation (mononuclear cell infiltration)” value ([3]; C57BL/6 mice, three times at two-day intervals) was “infiltration of mononuclear cells were observed and increased after the third treatment” and the “bladder inflammation in caspase 1 deficient mice” value ([3]; caspase 1 deficient mice) was “not detected”.
